Results published in patent US8796415B2, “Inhibitors of guanine exchange factors and their use as anticancer drugs” (Centre National de la Recherche Scientifique, priority 2009, dated 2014).
Ends that are not written are not given here.

Experiments:
Assay type in all cases: biochemical
Trio DH2-PH2 = target: T1, Trio DH2-PH2 (Homo sapiens, UniProt O75962); test: [3H]-GDP dissociation assay on Trio DH2-PH2; settings: 0.15 μM GST-Trio DH2-PH2, 3 μM GST-TRIP inhibitors
T1 construct: made in house
Procedure: Each residue of the active core of TRIPα (amino acids 9-36; Schmidt et al., 2002) was mutated to alanine, except cysteines which were changed into serines. All TRIPα mutants were then tested for their inhibitory activity on Trio DH2-PH2 in [3H]-GDP dissociation assays. This analysis mapped two essential regions of TRIPα, amino acids 9-20 and 28-33, where single mutations were sufficient to impair inhibition (see table 3).
The inventors next reasoned that peptides that would bind stronger to the GEF domain may also be better at inhibiting its activity. […] These clones were then produced as GST fusions and analyzed for their inhibition of Trio DH2-PH2, using the [3H]-GDP dissociation assay. […]
An aptamer library derived from TRIPα was created by PCR-based random mutagenesis of TRIPα inserted into the yeast two-hybrid vector pPC86. […] Selected peptides were then produced as GST-fusions and analyzed for their inhibition of Trio DH2-PH2 using the [3H]-GDP dissociation assay.
Radioactive [3H]-GDP dissociation assays were performed as described (Schmidt et al., 2002). […] Inhibition efficiency is expressed as the ratio between [3H]-GDP-bound RhoA at 15 and 0 min. Apparent inhibition constants (Kiapp) of TRIP-like peptides were determined from kobs values obtained at increasing peptide concentrations using the above fluorescence nucleotide exchange assay. […]

Tgat = test: mant-GTP fluorescence kinetics specificity assay, RhoA/Tgat; settings: peptide 20 μM, 0.5 μM Tgat, 1 μM RhoA, 1 μM mant-GTP
Procedure: (§1) Figures represent the comparison of TRIPE32G and TRIPT16M/L17S inhibition efficiency on different GTPase/RhoGEF systems, using 1 μM GTPase and 0.5 μM GEF as follows:
(§2) In each assay, the peptides were used at a concentration of 20 μM, corresponding to a 40 fold molar excess of inhibitor versus GEF. All fluorescence kinetics assays were performed using 1 μM mant-GTP. Results are expressed as Relative Fluorescence Units (RFU) versus time. The reaction performed in the absence of GEF reflects the spontaneous exchange activity of the GTPase.
(§3) Radioactive [3H]-GDP dissociation assays were performed as described (Schmidt et al., 2002). […] Inhibition efficiency is expressed as the ratio between [3H]-GDP-bound RhoA at 15 and 0 min. Apparent inhibition constants (Kiapp) of TRIP-like peptides were determined from kobs values obtained at increasing peptide concentrations using the above fluorescence nucleotide exchange assay. Kiapp was calculated from the hyperbolic fit of kobs values as a function of the inhibitor concentration as described (Zeeh et al., 2006). TRIP-like peptide specificity was assayed using mant-GTP fluorescence kinetics (λex=360 nm, λem=460 nm) in a FLX800 Microplate Fluorescence Reader (BioTek Instruments). […] The exchange reaction was initiated by addition of 1 μM RhoA or RhoG and monitored for 10 min.

p115RhoGEF = target: T2, p115RhoGEF (Homo sapiens, UniProt Q92888); test: mant-GTP fluorescence kinetics specificity assay, RhoA/p115RhoGEF; settings: peptide 20 μM, 0.5 μM GEF, 1 μM RhoA
T2 construct: GST (N); made in house; host or cells: baculovirus system
T2 sequence (Q92888 1-912): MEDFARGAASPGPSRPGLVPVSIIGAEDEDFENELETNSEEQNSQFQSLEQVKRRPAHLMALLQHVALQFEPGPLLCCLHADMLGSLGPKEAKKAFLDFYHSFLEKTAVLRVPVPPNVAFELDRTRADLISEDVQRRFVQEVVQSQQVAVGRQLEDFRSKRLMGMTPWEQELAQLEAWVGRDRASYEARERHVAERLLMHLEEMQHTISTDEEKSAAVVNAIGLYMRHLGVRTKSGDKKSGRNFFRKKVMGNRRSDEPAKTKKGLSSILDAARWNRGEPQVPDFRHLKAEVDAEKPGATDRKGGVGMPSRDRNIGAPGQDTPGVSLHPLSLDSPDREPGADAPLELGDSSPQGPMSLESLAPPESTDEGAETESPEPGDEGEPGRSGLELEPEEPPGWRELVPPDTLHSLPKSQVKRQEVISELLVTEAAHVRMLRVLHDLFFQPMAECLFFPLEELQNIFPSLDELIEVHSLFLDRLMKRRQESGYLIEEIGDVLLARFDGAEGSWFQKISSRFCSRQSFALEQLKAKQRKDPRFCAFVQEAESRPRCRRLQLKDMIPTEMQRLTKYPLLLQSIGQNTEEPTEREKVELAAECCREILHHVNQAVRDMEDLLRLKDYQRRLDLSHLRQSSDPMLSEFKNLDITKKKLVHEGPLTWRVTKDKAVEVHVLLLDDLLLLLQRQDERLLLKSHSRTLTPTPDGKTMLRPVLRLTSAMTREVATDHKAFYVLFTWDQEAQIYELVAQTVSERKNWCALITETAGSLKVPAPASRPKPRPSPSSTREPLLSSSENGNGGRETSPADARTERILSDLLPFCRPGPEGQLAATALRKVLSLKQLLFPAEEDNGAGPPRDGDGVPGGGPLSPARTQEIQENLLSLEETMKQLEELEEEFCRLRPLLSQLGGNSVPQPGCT
Procedure: as §1, §2, §3

Dbl = test: mant-GTP fluorescence kinetics specificity assay, RhoA/Dbl; settings: peptide 20 μM, 1 μM RhoA
Procedure: as §1, §2, §3

Trio DH1-PH1 = target: T3, Trio DH1-PH1 (Homo sapiens, UniProt O75962); test: mant-GTP fluorescence kinetics specificity assay, RhoG/Trio DH1-PH1; settings: peptide 20 μM, 1 μM RhoG
T3 construct: Recombinant GST-Trio DH2-PH2, GST-Trio DH1-PH1, GST-Dbl (DH-PH domain); GST (N); made in house
Procedure: as §1, §2, §3

Sequence of Dbl (P10911 495-809 limits assumed): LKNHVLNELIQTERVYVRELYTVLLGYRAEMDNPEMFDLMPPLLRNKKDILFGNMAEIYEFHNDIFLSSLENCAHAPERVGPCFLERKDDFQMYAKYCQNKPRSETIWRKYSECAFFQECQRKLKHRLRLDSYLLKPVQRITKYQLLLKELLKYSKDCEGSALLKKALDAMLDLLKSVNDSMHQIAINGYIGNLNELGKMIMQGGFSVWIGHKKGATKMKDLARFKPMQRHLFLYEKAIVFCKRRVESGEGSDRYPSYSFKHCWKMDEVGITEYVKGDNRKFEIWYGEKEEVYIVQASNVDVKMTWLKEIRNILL

Row | Substance | Inhibition efficiency on Trio DH2-PH2 compared to TRIPα (Trio DH2-PH2) | inhibition of Tgat exchange activity on RhoA (Tgat) | effect on exchange activity of p115RhoGEF/RhoA (p115RhoGEF) | effect on exchange activity of Dbl/RhoA (Dbl) | effect on exchange activity of Trio DH1-PH1/RhoG (Trio DH1-PH1)
1 | GST-TRIPE32G (AREGADGAICGYNLATLVMLGPSERVFCPLCGPCSSDIYELM; cysteine pairing not given here; also: GST fusion) | highest inhibition on Trio DH2-PH2 | fully inhibited | no effect | no effect | no effect
2 | GST-TRIPT16M/L17S | highest inhibition on Trio DH2-PH2 | fully inhibited | no effect | no effect | no effect
